Data on six compounds can be found in patent publication US12522596B2, “Compounds as GLP-1R agonists” (Terns Pharmaceuticals, Inc., priority 2021, dated 2026).

“Also recorded” adds a separate entry of the source.

In one assay the target is T1, human GLP-1R receptor (Homo sapiens, UniProt P43220).
T1 construct: expressed in transfected cells
In words: GLP-1R low expression cell assay (cAMP TR-FRET, CHO-K1_hGLP-1Rlow_clone10). It is filed as cell-based. As to conditions: CHO-K1_hGLP-1Rlow_clone10 cells. On the procedure: Stable cell lines expressing high and low GLP-1R surface expression were generated in CHO-K1 cells transfected (Fugene 6) with a puromycin selectable DNA plasmid encoding human GLP-1R receptor (accession number: NM_002062.5) under control of an EF1A promoter. Transfected cells were seeded into 24-well plates (9,000 cells/well) containing complete medium and incubated in a humidified incubator at 37° C. with 5% carbon dioxide. After overnight incubation, medium was replaced with complete medium supplemented with puromycin (6 μg/mL) and refreshed every 2-3 days to select for stably transfected cells. Individual pools of selected cells were expanded prior to analysis for responsiveness to GLP-1 control peptide using a TR-FRET assay to detect cAMP (LANCE Ultra CAMP Assay, Perkin Elmer). Briefly, cells were collected in Versene solution, plated in 384-well plates (1,000 cells/well) and combined with serially diluted GLP-1R control peptide (10 nL) using an acoustic dispenser (ECHO). Plates were incubated for 30 minutes at 25° C. prior to the addition of EU-CAMP tracer (5 μL) and Ulight-anti-cAMP (5 μL) reagents to each well, followed by 15 minutes incubation at 25° C. TR-FRET signal was detected using an En Vision Multimode Plate Reader (excitation=320 nm; emission=615 and 655 nm). Dose-response curves were used to generate EC50 values as a measure of responsiveness to the GLP-1R control peptide. Selected cell lines were monitored for responsiveness over multiple passages to ensure stability. […] Briefly, GLP-1R expression was analyzed by flow cytometry using a fluorescein-labeled Exendin-4 peptide fluorescent probe (FLEX). Cells were harvested in Versene solution and washed 3-times with PBS+0.5% BSA before incubation with FLEX reagent (10 μM) for 2 hours at room temperature. After incubation, cells were washed 3-times in PBS+0.5% BSA before final resuspension in PBS prior to analysis by flow cytometry to measure FLEX mean fluorescence intensity (MFI) as a measure of GLP-1R expression on the cell surface.
For compound testing in the CHO-K1_hGLP-1Rlow_clone10 cell line, cells were seeded in 384-well plates (1,000 cells/well). Test compounds were serially diluted in DMSO (10-point, 3-fold dilution), added to wells using an ECHO dispenser (10 nL/well) and plates were centrifuged for 1 min and agitated for 2 min at room temperature prior to 30-minute incubation at 25° C. After incubation, Eu-CAMP (5 μL) and Ulight-anti-cAMP (5 μL) reagents were added to each well, followed by centrifugation for 1 minute, agitation for 2 minutes at room temperature, and final incubation of the plates at 25° C. for 15 minutes. Plates were read using an EnVision microplate reader (excitation=320 nm; emission=615 and 655 nm). Dose-response curves were generated from duplicate wells based on percent activation calculated relative to a control GLP-1 peptide agonist that was run in parallel. EC50 values were determined by fitting percent activation as a function of compound concentration using the Hill equation (XLfit).
Stable cell lines expressing high and low GLP-1R surface expression were generated in CHO-K1 cells transfected (Fugene 6) with a puromycin selectable DNA plasmid encoding human GLP-1R receptor (accession number: NM_002062.5) under control of an EF1A promoter. Transfected cells were seeded into 24-well plates (9,000 cells/well) containing complete medium and incubated in a humidified incubator at 37° C. with 5% carbon dioxide. After overnight incubation, medium was replaced with complete medium supplemented with puromycin (6 μg/mL) and refreshed every 2-3 days to select for stably transfected cells. Individual pools of selected cells were expanded prior to analysis for responsiveness to GLP-1 control peptide using a TR-FRET assay to detect cAMP (LANCE Ultra CAMP Assay, Perkin Elmer).

For assay [1], the system named is C57BL/6 mice expressing human GLP-1R (hGLP-1R). Put plainly: Food intake in humanized mouse model. It is filed as in vivo. The conditions noted are these: hGLP-1R mice, relative to vehicle control; Compound 2 10, 30, 60 mg/kg PO. How it is done: The ability of compounds disclosed herein to modify the food intake of C57BL/6 mice expressing human GLP-1R (hGLP-1R) was evaluated.
The dose protocol used in this study is described in Table 6.
Acclimation and grouping: Mice were acclimated for QD PO dosing with vehicle for 4 days, baseline body weight and food intake were measured for 4 consecutive days. Animals were allocated into 8 groups based on body weight and 3rd day's food intake.
Dose body weight and food intake measurement: All animals were placed in clean cages with sawdust bedding and fasted overnight, mice were dosed with vehicle or test compound in the morning. All group's food was added 15 minutes post dosing, food remaining was recorded at 2-, 4-, 6-, 8-, 10- and 24-h post dosing. (FIG. 4) Body weight was determined on a daily basis during the study.
Data processing and analysis: Manual data were transferred into an excel spreadsheet. All values were expressed as mean±S.E.M. The significances of the differences among groups and within groups are evaluated by one-way or two-way ANOVA using Graph Pad statistic software. A p-value of less than 0.05 was considered statistically significant.

T1 sequence (P43220 24-463): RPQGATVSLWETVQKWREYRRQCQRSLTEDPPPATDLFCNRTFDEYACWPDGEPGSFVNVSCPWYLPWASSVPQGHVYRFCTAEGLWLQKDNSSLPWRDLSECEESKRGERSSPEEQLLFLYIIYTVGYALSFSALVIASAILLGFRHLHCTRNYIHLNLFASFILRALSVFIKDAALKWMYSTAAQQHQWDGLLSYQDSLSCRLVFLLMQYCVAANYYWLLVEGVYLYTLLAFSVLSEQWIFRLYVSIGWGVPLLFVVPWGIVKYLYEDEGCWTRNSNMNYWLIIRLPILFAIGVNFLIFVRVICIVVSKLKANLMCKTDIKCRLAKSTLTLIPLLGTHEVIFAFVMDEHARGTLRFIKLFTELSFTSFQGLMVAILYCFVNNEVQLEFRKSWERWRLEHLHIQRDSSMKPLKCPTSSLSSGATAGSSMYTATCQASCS

In general, EC50 refers to the midpoint of the concentration-response curve. The low end stands for a more potent agent, the high end for a less potent agent. Turning to `N#Cc1ccc(COc2cccc(C3CCN(Cc4nc5ccc(C(=O)O)cc5n4Cc4cncs4)CC3)n2)c(F)c1` [Compound 2], a half-maximal response on human GLP-1R receptor (EC50) required 3.1 nM. Further, the food intake entry in assay [1] is reported as “reduction in food intake; also recorded: significantly suppressed food intake”.
`Cc1ncsc1Cn1c(CN2CCC(c3cccc(OCc4ccc(C#N)cc4F)n3)CC2)nc2ccc(C(=O)O)cc21` [Compound 4] showed an EC50 at human GLP-1R receptor of 2.5 nM.
The same measure, in the same setting: the same measure for `N#Cc1ccc(COc2ccnc(C3CCN(Cc4nc5ccc(C(=O)O)cc5n4Cc4cncs4)CC3)n2)c(F)c1` [Compound 20]: 9.4 nM.
`N#Cc1ccc(COc2cccc(N3CCN(Cc4nc5ccc(C(=O)O)cc5n4Cc4cncs4)CC3)n2)c(F)c1` [Compound 30]: a half-maximal response on human GLP-1R receptor (EC50) required 1.7 nM.
`CC1(c2ccc(C#N)cc2F)Oc2cccc(C3CCN(Cc4nc5ccc(C(=O)O)cc5n4Cc4cncs4)CC3)c2O1` (stereo not shown) [Compound 31]: the EC50 at human GLP-1R receptor was determined as 0.6 nM.
For `N#Cc1ccc(COc2cccc(C3CCN(Cc4nc5ccc(C(=O)O)cc5n4C[C@@H]4CCO4)CC3)n2)c(F)c1` [Reference Compound A, reference compound], the food intake entry in assay [1] is listed as “reduction in food intake”.
